Assay results as given in PubChem BioAssay (NCI).
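Here, GI50 denotes the concentration required for 50% inhibition of growth. At the TGI there is no net growth.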

Legend:
Assay in all cases: NCI anticancer screen, dose series, 384-well format
SW-620 colon = tested on: SW-620 colon
DU-145 prostate = tested on: DU-145 prostate
UO-31 renal = tested on: UO-31 renal
A549 NSCLC = tested on: A549 NSCLC
SF-539 CNS = tested on: SF-539 CNS
SK-OV-3 ovarian = tested on: SK-OV-3 ovarian
SR leukemia = tested on: SR leukemia
786-0 renal = tested on: 786-0 renal
HCC-2998 colon = tested on: HCC-2998 colon
SNB-75 CNS = tested on: SNB-75 CNS
SK-MEL-5 melanoma = tested on: SK-MEL-5 melanoma
OVCAR-8 ovarian = tested on: OVCAR-8 ovarian
HOP-92 NSCLC = tested on: HOP-92 NSCLC
SK-MEL-28 melanoma = tested on: SK-MEL-28 melanoma
BT-549 breast = tested on: BT-549 breast
MDA-MB-231 breast = tested on: MDA-MB-231 breast
NCI-H460 NSCLC = tested on: NCI-H460 NSCLC
NCI/ADR-RES ovarian = tested on: NCI/ADR-RES ovarian
PC-3 prostate = tested on: PC-3 prostate
NCI-H23 lung = tested on: NCI-H23 lung
MDA-MB-435 melanoma = tested on: MDA-MB-435 melanoma
TK-10 renal = tested on: TK-10 renal
RXF 393 renal = tested on: RXF 393 renal
HCT-15 colon = tested on: HCT-15 colon
SN12C renal = tested on: SN12C renal
U251 glioblastoma = tested on: U251 glioblastoma
NCI-H226 lung = tested on: NCI-H226 lung
ACHN renal = tested on: ACHN renal
CAKI-1 renal = tested on: CAKI-1 renal

What does the source list for `CN(C)CCCOc1ccc(-c2ccc3ncc4c(c3c2)n(C2CCOCC2)c(=O)n4C)cn1`?
GI50 (SW-620 colon): 4.91 µM; TGI (SW-620 colon): > 100 µM; GI50 (DU-145 prostate): 4.92 µM; TGI (DU-145 prostate): > 100 µM; GI50 (UO-31 renal): 4.78 µM; TGI (UO-31 renal): > 100 µM; GI50 (A549 NSCLC): 3.91 µM; TGI (A549 NSCLC): > 100 µM; GI50 (SF-539 CNS): 3.85 µM; TGI (SF-539 CNS): > 100 µM; GI50 (SK-OV-3 ovarian): 2.45 µM; TGI (SK-OV-3 ovarian): 71.9 µM; GI50 (SR leukemia): 0.172 µM; TGI (SR leukemia): 0.445 µM; GI50 (786-0 renal): 5.99 µM; TGI (786-0 renal): > 100 µM; GI50 (HCC-2998 colon): 3.12 µM; TGI (HCC-2998 colon): > 100 µM; GI50 (SNB-75 CNS): 2.76 µM; TGI (SNB-75 CNS): > 100 µM; GI50 (SK-MEL-5 melanoma): 2.23 µM; TGI (SK-MEL-5 melanoma): > 100 µM; GI50 (OVCAR-8 ovarian): 5.22 µM; TGI (OVCAR-8 ovarian): > 100 µM; GI50 (HOP-92 NSCLC): 3.45 µM; TGI (HOP-92 NSCLC): 20.2 µM; GI50 (SK-MEL-28 melanoma): 5.73 µM; TGI (SK-MEL-28 melanoma): > 100 µM; GI50 (BT-549 breast): 3.56 µM; TGI (BT-549 breast): 30 µM; GI50 (MDA-MB-231 breast): 2.08 µM; TGI (MDA-MB-231 breast): > 100 µM; GI50 (NCI-H460 NSCLC): 1.5 µM; TGI (NCI-H460 NSCLC): 96.2 µM; GI50 (NCI/ADR-RES ovarian): > 100 µM; TGI (NCI/ADR-RES ovarian): > 100 µM; GI50 (PC-3 prostate): 1.73 µM; TGI (PC-3 prostate): 12 µM; GI50 (NCI-H23 lung): 8.22 µM; TGI (NCI-H23 lung): > 100 µM; GI50 (MDA-MB-435 melanoma): 6.28 µM; TGI (MDA-MB-435 melanoma): > 100 µM; GI50 (TK-10 renal): 3 µM; TGI (TK-10 renal): 49.5 µM; GI50 (RXF 393 renal): 5.05 µM; TGI (RXF 393 renal): > 100 µM; GI50 (HCT-15 colon): 5.01 µM; TGI (HCT-15 colon): > 100 µM; GI50 (SN12C renal): 2.32 µM; TGI (SN12C renal): 32.8 µM; GI50 (U251 glioblastoma): > 100 µM; TGI (U251 glioblastoma): > 100 µM; GI50 (NCI-H226 lung): 3.73 µM; TGI (NCI-H226 lung): > 100 µM; GI50 (ACHN renal): 5.21 µM; TGI (ACHN renal): > 100 µM; GI50 (CAKI-1 renal): 1.45 µM; TGI (CAKI-1 renal): 6.38 µM
